Data taken from ChEMBL document CHEMBL1201862, “PubChem BioAssay data set” (2004).
The source made the active and inactive calls.

Tests used:
[1] = target: Potassium voltage-gated channel subfamily KQT member 2 (Rattus norvegicus, UniProt O88943); test: potentiation of rat KCNQ2 current – cell-based, retigabine-insensitive compounds, dose response (AID 2654); format: functional
Protein Rev = Protein Rev (Human immunodeficiency virus type 1 group M subtype B (isolate HXB2)(HIV-1), UniProt P04618); test: blockers of HIV Rev/RRE RNA complex – biochemical, fluorescence polarization, HIV-1, dose response (AID 434976); design: species or system Human immunodeficiency virus 1
[2] = target: Female germline-specific tumor suppressor gld-1 (Caenorhabditis elegans, UniProt Q17339); test: blockers of GLD-1/TGE RNA complex formation – biochemical, fluorescence polarization, C. elegans, dose response (AID 2802);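 further: fluorescence polarization of labeled TGE RNA bound by purified gld-1 protein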
14-3-3 protein gamma = 14-3-3 protein gamma (Homo sapiens, UniProt P61981); test: modulators of 14-3-3 gamma client binding – dose response (AID 711); format: functional
Genome polyprotein = Genome polyprotein (dengue virus type 2, UniProt P29990); test: flavivirus cap methylation enzyme inhibition – biochemical, confirmation dose response, primary screen (AID 588689); format: functional
[3] = target: T1, Long-chain-fatty-acid--AMP ligase FadD28 (Mycobacterium tuberculosis, UniProt P9WQ59); test: Fluorescence polarization aasay to screen for inhibitors that compete for the binding of FadD28 to a bisubstrate Measured in Biochemical System Using Plate Reader - 2147-01_Inhibitor_Dose_CherryPick_Activity.; format: functional, Mycobacterium tuberculosis H37Rv
T1 sequence (P9WQ59 whole entry): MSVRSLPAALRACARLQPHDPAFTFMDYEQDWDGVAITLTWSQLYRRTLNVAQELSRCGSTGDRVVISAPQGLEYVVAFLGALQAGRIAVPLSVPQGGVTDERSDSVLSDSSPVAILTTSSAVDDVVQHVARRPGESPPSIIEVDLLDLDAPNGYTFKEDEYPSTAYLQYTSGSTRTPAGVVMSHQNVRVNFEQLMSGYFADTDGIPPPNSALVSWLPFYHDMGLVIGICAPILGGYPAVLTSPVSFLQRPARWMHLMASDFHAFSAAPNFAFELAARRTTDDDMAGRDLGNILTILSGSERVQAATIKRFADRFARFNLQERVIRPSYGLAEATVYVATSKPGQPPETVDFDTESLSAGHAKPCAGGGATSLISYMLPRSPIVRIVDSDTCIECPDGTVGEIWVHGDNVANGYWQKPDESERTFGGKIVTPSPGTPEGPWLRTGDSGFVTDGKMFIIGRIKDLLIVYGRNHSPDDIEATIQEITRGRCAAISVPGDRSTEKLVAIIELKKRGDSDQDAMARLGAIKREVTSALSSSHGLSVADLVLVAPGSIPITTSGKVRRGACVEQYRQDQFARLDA

Caspase-3 [4] = target: T2, Caspase-3 (Homo sapiens, UniProt P42574); test: activators of human procaspase-3 D3A mutant – biochemical, absorbance, PC-3 D3A mutant, counter-screen for dual procaspase-3/7 activator project, dose response (AID 504328)
T2 sequence (P42574 whole entry): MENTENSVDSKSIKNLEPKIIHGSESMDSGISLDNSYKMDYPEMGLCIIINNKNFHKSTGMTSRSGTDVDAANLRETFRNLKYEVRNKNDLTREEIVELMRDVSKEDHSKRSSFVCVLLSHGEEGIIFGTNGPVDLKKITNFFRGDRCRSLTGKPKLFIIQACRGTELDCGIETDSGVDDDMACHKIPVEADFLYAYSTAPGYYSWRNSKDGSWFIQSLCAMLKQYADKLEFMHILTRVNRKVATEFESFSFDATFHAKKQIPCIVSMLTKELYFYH

Caspase-7 [5] = target: T3, Caspase-7 (Homo sapiens, UniProt P55210); test: potency of procaspase-7 enzyme activation – biochemical, absorbance, human, dual procaspase-3/-7 activator project, dose response (AID 504330)
T3 sequence (P55210 whole entry): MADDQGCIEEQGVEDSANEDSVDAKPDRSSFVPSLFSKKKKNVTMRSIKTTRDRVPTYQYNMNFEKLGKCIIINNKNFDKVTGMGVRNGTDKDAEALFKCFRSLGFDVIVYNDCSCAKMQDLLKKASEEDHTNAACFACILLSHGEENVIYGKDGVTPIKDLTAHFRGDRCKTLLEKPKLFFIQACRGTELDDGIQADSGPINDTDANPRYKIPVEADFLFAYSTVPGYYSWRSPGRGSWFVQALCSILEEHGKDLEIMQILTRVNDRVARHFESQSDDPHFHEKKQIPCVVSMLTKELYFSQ

[6] = blockers of HIV-1 envelope-mediated cell-cell fusion – cherry-pick, dose response (AID 652057); format: functional, cell-based
Cytochrome P450 2D6 = Cytochrome P450 2D6 (Homo sapiens, UniProt P10635);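 further: CYP2D6 member of a cytochrome P450 panel assay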
[7] = NIH-3T3 fibroblast cytotoxicity, dose response, cytotoxicity control, cell-based, fluorescence, Alamar Blue, secondary assay (AID 2327); format: functional;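 further: NIH-3T3 mouse fibroblasts cultured with fluconazole at 8 µg/mL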
[8] = target: G-protein coupled receptor 35 (Homo sapiens, UniProt Q9HC97); test: inhibition of zaprinast-stimulated GPR35 beta-arrestin translocation – imaging, U2OS, beta-arrestin-GFP, zaprinast agonist, primary screen (AID 2058); format: functional;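 further: antagonist potency meaning inhibition of agonist-induced arrestin redistribution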
[9] = target: T4, RNA-binding protein pos-1 (Caenorhabditis elegans, UniProt G5EF15); test: disruptors of C. elegans POS-1 RNA interaction – biochemical, fluorescence polarization, dose response (AID 1964);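 further: purified POS-1 fused to maltose binding protein made in E. coli; potency of compounds blocking POS-1 binding to fluorescent RNA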
T4 sequence (G5EF15 whole entry): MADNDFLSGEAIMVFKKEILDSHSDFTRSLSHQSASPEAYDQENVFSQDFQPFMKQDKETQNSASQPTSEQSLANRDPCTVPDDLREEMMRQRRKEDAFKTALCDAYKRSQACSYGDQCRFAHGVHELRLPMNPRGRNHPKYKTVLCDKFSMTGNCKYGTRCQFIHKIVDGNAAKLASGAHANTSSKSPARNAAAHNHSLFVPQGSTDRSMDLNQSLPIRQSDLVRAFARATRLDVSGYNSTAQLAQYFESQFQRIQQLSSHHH

[10] = target: T5, Zinc finger protein mex-5 (Caenorhabditis elegans, UniProt Q9XUB2); test: potency of MEX-5 RNA-binding blockers – biochemical, C. elegans, fluorescence polarization, dose response (AID 1960)
T5 sequence (Q9XUB2 whole entry): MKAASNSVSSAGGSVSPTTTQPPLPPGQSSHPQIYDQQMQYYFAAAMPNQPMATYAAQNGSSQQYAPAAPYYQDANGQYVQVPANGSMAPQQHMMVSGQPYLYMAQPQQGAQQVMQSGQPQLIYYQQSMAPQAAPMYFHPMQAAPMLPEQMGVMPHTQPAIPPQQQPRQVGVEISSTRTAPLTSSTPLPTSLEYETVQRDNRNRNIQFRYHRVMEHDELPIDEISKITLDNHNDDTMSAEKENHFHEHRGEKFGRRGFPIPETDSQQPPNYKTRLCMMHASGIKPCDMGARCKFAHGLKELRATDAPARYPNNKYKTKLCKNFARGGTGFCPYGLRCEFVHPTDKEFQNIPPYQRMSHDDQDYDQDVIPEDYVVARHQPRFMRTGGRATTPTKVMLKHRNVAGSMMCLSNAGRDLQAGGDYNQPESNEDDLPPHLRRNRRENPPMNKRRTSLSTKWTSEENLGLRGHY

[11] = fluconazole-exposed Candida albicans growth modulators – fluorescence, retest, confirmation (AID 2467); format: functional, cell-based
[12] = target: T6, Apoptotic protease-activating factor 1 (Homo sapiens, UniProt O14727); format: functional
T6 sequence (O14727 whole entry): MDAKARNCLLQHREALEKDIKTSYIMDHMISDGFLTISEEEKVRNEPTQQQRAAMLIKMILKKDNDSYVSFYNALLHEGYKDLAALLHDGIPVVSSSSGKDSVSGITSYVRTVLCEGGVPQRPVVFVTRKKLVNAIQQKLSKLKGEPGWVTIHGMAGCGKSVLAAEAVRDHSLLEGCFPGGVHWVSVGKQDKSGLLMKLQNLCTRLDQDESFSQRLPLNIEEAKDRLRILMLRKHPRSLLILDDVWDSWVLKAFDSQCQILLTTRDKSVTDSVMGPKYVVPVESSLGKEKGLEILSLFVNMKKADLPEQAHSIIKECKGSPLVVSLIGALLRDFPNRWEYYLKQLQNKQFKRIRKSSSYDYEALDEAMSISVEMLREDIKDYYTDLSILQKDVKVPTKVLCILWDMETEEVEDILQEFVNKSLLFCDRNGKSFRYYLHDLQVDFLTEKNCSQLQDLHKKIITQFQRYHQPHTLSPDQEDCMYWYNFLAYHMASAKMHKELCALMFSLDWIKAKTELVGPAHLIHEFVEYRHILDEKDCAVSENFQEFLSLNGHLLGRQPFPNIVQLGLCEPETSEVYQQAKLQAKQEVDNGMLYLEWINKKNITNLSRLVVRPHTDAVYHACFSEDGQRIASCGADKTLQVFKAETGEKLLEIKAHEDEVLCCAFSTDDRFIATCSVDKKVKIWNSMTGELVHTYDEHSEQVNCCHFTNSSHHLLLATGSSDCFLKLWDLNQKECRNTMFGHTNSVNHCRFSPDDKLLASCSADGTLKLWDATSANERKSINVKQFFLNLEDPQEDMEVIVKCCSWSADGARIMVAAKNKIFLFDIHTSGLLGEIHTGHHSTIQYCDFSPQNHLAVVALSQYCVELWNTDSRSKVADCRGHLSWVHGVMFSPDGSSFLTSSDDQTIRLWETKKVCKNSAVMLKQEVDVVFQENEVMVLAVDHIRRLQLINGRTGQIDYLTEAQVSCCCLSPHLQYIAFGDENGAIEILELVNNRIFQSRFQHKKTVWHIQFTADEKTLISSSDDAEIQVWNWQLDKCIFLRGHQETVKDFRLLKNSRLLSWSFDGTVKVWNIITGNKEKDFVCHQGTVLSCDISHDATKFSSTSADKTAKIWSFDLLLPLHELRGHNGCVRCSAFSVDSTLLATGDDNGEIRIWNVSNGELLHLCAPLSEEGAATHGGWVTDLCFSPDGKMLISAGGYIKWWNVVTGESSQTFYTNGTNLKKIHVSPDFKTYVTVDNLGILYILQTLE

[13] = reduction of Shn3 3'UTR-driven luciferase in osteoblasts – cell-based, Clone20 osteoblasts, firefly luciferase, cherry-picked, dose response (AID 624132); format: functional;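 further: firefly luciferase luminescence from reporter carrying the Shn3 3'UTR in osteoblasts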
[14] = loss of viability in HepG2 cells – cell-based, CellTiter-Glo, cherry-picked, cytotoxicity control for Shn3 inhibitor project, dose response (AID 624134); format: functional
[15] = non-specific 3'UTR reporter inhibition in Clone20-Shn3RL – cell-based, Renilla luciferase, cherry-picked, counter-screen for Shn3 inhibitor project, dose response (AID 624133); format: functional
Caspase-6 = target: T7, Caspase-6 (Homo sapiens, UniProt P55212); test: inhibition of CASP6 peptide cleavage – biochemical, VEID-R110 fluorescence, cherry-pick, dose response (AID 720632)
T7 sequence (P55212 whole entry): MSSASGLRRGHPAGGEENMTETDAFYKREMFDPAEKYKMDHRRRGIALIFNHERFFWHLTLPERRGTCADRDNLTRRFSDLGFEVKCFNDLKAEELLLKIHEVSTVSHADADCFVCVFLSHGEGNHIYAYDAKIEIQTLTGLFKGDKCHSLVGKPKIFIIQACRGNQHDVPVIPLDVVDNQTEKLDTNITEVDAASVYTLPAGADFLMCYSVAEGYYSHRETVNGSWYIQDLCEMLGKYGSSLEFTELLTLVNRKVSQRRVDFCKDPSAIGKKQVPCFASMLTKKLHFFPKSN

Caspase-7 [16] = target: T3, Caspase-7; test: caspase-7 enzyme inhibition, selectivity check – biochemical, DEVD-R110 fluorescence, cherry-pick, selectivity assay for caspase-6 inhibitor project, dose response (AID 743295); format: functional
Caspase-8 = Caspase-8 (Homo sapiens, UniProt Q14790); test: inhibitors of purified CASP8 protease – biochemical, Z-IETD-R110 fluorescence, cherry-picked samples, selectivity assay for caspase-6 inhibitor project, dose response (AID 743294)
Caspase-3 [17] = target: T2, Caspase-3; test: human caspase-3 protease activity blockade – biochemical, fluorescence, cherry-picked samples, selectivity assay for caspase-6 allosteric inhibitor project, dose response (AID 743291)

14-3-3 protein gamma, sequence (P61981 whole entry): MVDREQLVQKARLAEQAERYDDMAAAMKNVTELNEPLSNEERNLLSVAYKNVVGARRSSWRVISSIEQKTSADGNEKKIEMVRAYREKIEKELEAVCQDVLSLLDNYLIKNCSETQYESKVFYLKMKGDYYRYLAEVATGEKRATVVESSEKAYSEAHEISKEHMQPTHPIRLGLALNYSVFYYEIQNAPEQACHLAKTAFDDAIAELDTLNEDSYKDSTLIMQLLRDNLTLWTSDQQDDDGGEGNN
Cytochrome P450 2D6, sequence (P10635 whole entry): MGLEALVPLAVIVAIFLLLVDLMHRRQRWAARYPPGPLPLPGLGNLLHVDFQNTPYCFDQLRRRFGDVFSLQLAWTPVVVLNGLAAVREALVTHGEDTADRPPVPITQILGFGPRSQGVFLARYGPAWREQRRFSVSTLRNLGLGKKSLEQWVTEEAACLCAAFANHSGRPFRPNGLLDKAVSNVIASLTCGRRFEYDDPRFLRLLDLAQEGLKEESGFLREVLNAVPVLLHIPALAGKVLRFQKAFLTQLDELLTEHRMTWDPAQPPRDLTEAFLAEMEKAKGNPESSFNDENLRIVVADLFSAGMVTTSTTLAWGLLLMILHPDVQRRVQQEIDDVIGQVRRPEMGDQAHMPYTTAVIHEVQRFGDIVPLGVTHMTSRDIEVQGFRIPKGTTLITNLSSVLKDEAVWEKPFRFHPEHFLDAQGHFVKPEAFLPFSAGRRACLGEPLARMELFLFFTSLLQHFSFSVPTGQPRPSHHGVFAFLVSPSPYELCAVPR
Potassium voltage-gated channel subfamily KQT member 2, sequence (O88943 whole entry): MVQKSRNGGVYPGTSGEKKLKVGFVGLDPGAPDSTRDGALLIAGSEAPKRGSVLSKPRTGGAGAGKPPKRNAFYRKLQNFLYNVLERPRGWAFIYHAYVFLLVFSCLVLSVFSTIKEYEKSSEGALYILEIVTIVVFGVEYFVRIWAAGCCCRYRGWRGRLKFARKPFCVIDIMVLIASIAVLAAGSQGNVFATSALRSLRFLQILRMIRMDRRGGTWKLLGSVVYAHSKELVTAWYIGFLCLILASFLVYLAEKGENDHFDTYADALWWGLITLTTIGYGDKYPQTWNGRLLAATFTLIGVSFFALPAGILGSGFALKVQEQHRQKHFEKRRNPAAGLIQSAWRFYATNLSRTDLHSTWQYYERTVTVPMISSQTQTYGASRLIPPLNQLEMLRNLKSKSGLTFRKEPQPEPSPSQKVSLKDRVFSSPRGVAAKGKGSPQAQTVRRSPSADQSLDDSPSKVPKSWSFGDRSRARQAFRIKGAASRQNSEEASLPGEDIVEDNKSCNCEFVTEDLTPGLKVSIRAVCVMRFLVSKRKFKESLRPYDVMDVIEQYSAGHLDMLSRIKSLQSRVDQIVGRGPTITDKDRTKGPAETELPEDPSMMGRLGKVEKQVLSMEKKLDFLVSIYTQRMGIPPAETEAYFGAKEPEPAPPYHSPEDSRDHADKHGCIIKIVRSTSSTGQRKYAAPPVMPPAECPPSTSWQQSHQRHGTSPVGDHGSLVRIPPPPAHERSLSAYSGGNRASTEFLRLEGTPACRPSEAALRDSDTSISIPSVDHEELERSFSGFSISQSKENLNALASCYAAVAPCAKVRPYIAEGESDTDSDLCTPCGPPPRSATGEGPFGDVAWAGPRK
Protein Rev, sequence (P04618 whole entry): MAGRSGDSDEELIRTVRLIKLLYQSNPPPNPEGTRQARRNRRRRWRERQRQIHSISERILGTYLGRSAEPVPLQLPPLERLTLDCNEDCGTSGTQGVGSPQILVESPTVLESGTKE
Female germline-specific tumor suppressor gld-1, sequence (Q17339 whole entry): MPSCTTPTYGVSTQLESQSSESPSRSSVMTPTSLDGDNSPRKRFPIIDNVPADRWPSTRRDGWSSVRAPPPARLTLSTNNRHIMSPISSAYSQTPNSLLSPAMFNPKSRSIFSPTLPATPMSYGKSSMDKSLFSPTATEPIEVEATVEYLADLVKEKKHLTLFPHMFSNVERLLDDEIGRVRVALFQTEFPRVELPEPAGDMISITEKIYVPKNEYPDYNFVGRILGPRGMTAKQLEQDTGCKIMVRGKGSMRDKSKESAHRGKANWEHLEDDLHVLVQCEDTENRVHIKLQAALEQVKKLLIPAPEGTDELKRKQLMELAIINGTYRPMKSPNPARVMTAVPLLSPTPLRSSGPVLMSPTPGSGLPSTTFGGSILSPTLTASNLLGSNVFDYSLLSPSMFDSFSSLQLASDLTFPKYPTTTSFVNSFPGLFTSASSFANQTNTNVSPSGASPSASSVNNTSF
G-protein coupled receptor 35, sequence (Q9HC97 whole entry, the tested form may be a part): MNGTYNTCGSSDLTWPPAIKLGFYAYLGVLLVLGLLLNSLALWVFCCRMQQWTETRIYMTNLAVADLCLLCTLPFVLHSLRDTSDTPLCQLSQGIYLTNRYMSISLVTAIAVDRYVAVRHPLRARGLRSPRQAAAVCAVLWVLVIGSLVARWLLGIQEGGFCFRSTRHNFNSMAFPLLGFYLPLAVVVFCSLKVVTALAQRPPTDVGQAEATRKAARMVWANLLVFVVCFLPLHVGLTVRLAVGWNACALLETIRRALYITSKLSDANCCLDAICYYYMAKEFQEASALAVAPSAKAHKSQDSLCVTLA
Genome polyprotein, sequence (P29990 2492-3391 limits assumed): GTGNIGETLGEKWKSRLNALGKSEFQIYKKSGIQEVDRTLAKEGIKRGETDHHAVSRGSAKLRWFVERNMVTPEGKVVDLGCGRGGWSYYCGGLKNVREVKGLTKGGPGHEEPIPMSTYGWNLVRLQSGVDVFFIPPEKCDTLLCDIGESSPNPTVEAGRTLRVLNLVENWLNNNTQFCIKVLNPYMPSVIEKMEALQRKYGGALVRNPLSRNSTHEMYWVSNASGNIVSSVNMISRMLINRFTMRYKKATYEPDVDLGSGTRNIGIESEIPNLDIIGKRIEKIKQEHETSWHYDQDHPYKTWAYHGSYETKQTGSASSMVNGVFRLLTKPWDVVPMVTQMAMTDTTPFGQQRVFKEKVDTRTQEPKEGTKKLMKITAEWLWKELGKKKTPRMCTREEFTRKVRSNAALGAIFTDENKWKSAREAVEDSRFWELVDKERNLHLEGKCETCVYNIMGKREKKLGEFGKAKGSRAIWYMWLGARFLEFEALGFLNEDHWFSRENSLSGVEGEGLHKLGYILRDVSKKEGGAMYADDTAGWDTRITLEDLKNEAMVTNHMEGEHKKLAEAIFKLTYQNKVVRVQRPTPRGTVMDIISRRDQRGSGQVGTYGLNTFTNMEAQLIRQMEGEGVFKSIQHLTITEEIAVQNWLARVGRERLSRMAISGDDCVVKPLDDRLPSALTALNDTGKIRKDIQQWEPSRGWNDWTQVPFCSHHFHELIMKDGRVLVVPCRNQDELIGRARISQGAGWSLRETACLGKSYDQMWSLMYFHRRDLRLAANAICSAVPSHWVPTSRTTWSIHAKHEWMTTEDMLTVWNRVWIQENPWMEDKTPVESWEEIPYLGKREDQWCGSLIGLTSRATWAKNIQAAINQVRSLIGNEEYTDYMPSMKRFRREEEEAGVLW
Caspase-8, sequence (Q14790 217-374 limits assumed): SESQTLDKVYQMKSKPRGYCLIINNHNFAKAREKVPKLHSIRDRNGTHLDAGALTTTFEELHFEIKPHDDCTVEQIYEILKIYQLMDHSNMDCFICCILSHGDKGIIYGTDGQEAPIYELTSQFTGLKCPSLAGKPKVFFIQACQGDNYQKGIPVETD
Caspase-8, sequence (Q14790 385-479 limits assumed): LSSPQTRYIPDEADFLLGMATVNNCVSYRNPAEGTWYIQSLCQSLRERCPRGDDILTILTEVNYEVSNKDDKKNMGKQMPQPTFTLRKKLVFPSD

Structure (SMILES): Cc1ccc(NC(=O)Nc2cccnc2)cc1
- EC50 [1]: 128 µM (active)

Structure (SMILES): CCn1c(CSc2nnc3ccccn23)nc2cc(C(=O)O)ccc21
- IC50 (Protein Rev): > 75.4 µM (not active)
- IC50 [2]: 11.2 µM (inactive)
- IC50 (14-3-3 protein gamma): 0.853 µM (active)
- IC50 (Genome polyprotein): 23.2 µM (active)
- AC50 [3]: 50.1 µM (active)

Structure (SMILES): COc1ccc(Nc2ncc(C(=O)N3CCN(c4ccc(F)cc4)CC3)c3ccccc23)cc1
- EC50 (Caspase-3 [4]): > 85.2 µM (inactive)
- EC50 (Caspase-7 [5]): > 85.2 µM (inactive)
- AC50 [6]: 49 µM (active)
- AC50 (Cytochrome P450 2D6): 31.6 µM (inconclusive)

Structure (SMILES): CCOc1ccc2nc3cc(NCc4ccc(OC)cc4)ccc3c(N)c2c1
- EC50 [7]: > 150 µM (inconclusive)
- IC50 [8]: 15.3 µM (inactive)
- EC50 [9]: 4.47 µM (active)
- EC50 [10]: 3.94 µM (active)
- EC50 [11]: 2.76 µM (active)
- IC50 [12]: 23.5 µM (active)
- AC50 [13]: 6.69 µM (active)
- AC50 [14]: 16.5 µM (active)
- AC50 [15]: 23 µM (active)
- AC50 (Caspase-6): 4.3 µM (active)
- AC50 (Caspase-7 [16]): 9.75 µM (active)
- AC50 (Caspase-8): 25.9 µM (active)
- AC50 (Caspase-3 [17]): 21.2 µM (active)
